# Test results published in US9988381B2, “Five-member-heterocycle fused pyridine compounds, method of producing the same, and use thereof” (SHANGHAI INSTITUTE OF MATERIA MEDICA, CHINESE ACADEMY OF …, priority 2013, dated 2018).
# Like-named read-outs stand apart in the source and are kept apart here.
# Assays:
# [1] = biological target: T1, c-Met kinase domain recombinant protein (Homo sapiens, UniProt P08581); test: biochemical; conditions: read-out: Inhibition rate at 10 μM (%)
# T1 construct: 50 μL diluted solution of c-Met kinase domain recombinant protein in reaction buffer was added to initiate the reaction
# Procedure, shortened: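 Recombinant c-Met kinase domain phosphorylated immobilised Poly(Glu,Tyr)4:1 for 1 h at 37 °C in 50 mM HEPES pH 7.4, 50 mM MgCl2, 0.5 mM MnCl2, 0.2 mM Na3VO4, 1 mM DTT with ATP. Product measured by anti-phosphotyrosine PY99 ELISA (HRP, 490 nm), giving percent inhibition; ATP-free wells served as control.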
# [2] = biological target: T1, c-Met kinase domain recombinant protein; test: biochemical
# Procedure, shortened: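 IC50 came from a four-parameter fit of inhibition rates measured by anti-phosphotyrosine (PY99/HRP) ELISA at 490 nm. The reaction ran 1 hour at 37° C with 5 μM ATP, c-Met kinase domain protein and Poly(Glu,Tyr)4:1-coated wells, in HEPES pH 7.4 buffer containing MgCl2, MnCl2, Na3VO4 and DTT.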
# BaF3/TPR-Met cell = test: Test III: growth inhibition of engineered BaF3/TPR-Met cells (MTT); type: cell-based; conditions: Mus musculus, BaF3, 72 h
# Description: Assays on the growth inhibition of the compounds against engineered BaF3/TPR-Met cell (engineered cell line having TPR-Met fusion protein stably expressed in cytoplasm, persistently activated, Met dependent sensitive cell line; BaF3 cell was purchased from DSMZ, German) were detected using microculture tetrozolium (MTT) staining. A certain amount of BaF3/TPR-Met cells at log phase were inoculated into 96-well culture plate at 90 µL per well, incubated overnight and then 10 μL compound at various concentrations or vehicle control (normal saline) was added, each concentration was tested in triplicate. After incubation with compound for 72 hours, the incubation was terminated, MTT solution (5 mg/mL) was added at 20 μL per well, incubated at 37° C. for 4 hours, then 100 μL triplet solution (10% SDS−5% isobutanol−0.01M HCl) was added, incubated overnight at 37° C., OD value was measured at 570 nm. […] Experiments were conducted in duplicates.
# [3] = tested on: human malignant glioblastoma cell U87MG xenograft; test: Test V: human malignant glioblastoma U87MG xenograft in nude mice; type: in vivo
# Description: U87-MG cells were expanded by in vitro culture, cells at log phase were harvested and resuspended in EMEM, adjusted to a cell density of 2.8×10^7/mL, then implanted subcutaneously in the right axilla of nude mice.
# During the trial, tumor diameters and animal weights were measured twice a week. Tumor Volume (TV) was calculated by the following equation: TV=1/2×a×b^2, wherein a, b represent length and width, respectively. Based on the measurement, Relative Tumor Volume (RTV) was calculated by the following equation: RTV=Vt/V0, wherein V0 is the tumor volume measured when divided for administration (i.e., d0), Vt is the tumor volume measured at each timepoint.
# [4] = 50 mg/kg po qd/14, end of administration
# T1 sequence (P08581 1078-1345 limits assumed): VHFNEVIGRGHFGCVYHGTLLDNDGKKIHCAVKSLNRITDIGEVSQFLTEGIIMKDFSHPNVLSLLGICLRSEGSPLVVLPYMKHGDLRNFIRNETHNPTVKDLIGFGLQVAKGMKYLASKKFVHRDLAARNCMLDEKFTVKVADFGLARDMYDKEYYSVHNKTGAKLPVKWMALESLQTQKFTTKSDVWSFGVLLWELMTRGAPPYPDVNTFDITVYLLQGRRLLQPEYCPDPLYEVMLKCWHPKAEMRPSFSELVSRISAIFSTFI
structure (smiles),measurement,setting,value
"Cn1cc(-c2cnc3cnn(S(=O)(=O)c4cnc5ccccn45)c3c2)cn1 [Compound 19, 1-(imidazo[1,2-a]pyridine-3-sulfonyl)-6-[(1-methyl)-4-pyrazolyl]-1-H-pyrazolo[4,3-b]pyridine]",inhibition at 10 µM,[1],59.3%
same,IC50,[2],7.8 ± 0.8 nM
same,inhibition at 0.1 µM,[2]; read-out: Average inhibition rate at 0.1 μM (%),59.2%
same,inhibition at 1 µM,[2]; read-out: Average inhibition rate at 1 μM (%),53.5%
same,inhibition at 10 µM,[2]; read-out: Average inhibition rate at 10 μM (%),59.3%
same,inhibition at 0.2 µM,BaF3/TPR-Met cell; read-out: Cell proliferation inhibition rate at 200 nM (%),91.8%
same,inhibition at 1 µM,BaF3/TPR-Met cell; read-out: Cell proliferation inhibition rate at 1 μM (%),95.6%
same,state and survival of mice during the administration period,[3]; 50 mg/kg daily for 14 days,in good state and were survived
same,antitumor activity (in words),"[3]; 50 mg/kg daily, d14",favorable antitumor activity
same,RTV (mean ± SE),[3]; [4],77.0 ± 5.2
same,"TV (mm^3, mean ± SE) d21",[3]; [4],140 ± 20 mm^3
same,Weight (g) d21,[3]; [4],24.5 g
same,GI (%),"[3]; 50 mg/kg po qd/14, end of the trial",102.41%
same,T/C (%),"[3]; 50 mg/kg po qd/14, end of the trial (d14)",7.29%
